Assay results taken from patent publication US10905761B2, “Use of a lipopeptide or lipoprotein as an adjuvant in therapeutic or prophylactic vaccinations” (HELMHOLTZ-ZENTRUM FUER INFEKTIONSFORSCHUNG GMBH, priority 2002, dated 2021).

How the values were obtained:
Type in all cases: in vivo
[1] = system: BALB/c (H-2d) mice
[2] = system: BALB/c (H-2d) mice; assay: β-Galactosidase-specific IgA in lung and vaginal lavages of mice immunized i.n. (Example 5); details: i.n. immunization; day 31
Experimental: The results are shown as percentage of β-galactosidase-specific IgA in relation to the total IgA present. The SEM is indicated by vertical lines.
The mice were sacrificed on day 31, and the final samples were taken. Vaginal and lung lavages were obtained by rinsing the organs with 1 ml of PBS supplemented by 50 mM EDTA, 0.1% BSA and 10 mM PMSF. The lavages were then centrifuged in order to remove tissue detritus (10 min at 3000×g) and the remaining liquid was stored at −20° C. In order to determine the total IgA concentration in the rinsings from lung and vagina, serial dilutions of the corresponding samples were incubated in microtiter plates, these plates having previously been coated with goat anti-mouse IgA (Sigma Chemie) as capture antibody (100 μl/well). Serial dilutions of purified mouse IgA (Sigma Chemie) were used to produce a standard plot.

[3] = system: BALB/c (H-2d) mice; assay: β-Galactosidase-specific IgG isotypes in the serum of immunized mice (ELISA, Example 8); details: average ± SEM, 5 mice per group
[4] = system: BALB/c (H-2d) mice; assay: Kinetics of β-gal-specific IgG responses in sera of mice immunized i.n. or i.p. (Example 4); details: pure β-galactosidase 50 μg/dose i.n.; after a second boost
Experimental: Groups of animals (n=5) were immunized either i.n. (A) or i.p. (B) with 50 μg of β-gal ( ), β-gal plus 10 μg of CTB ( ), β-gal plus 0.5 μg of MALP-2 ( ) or pure buffer solution ( ). The days of the immunizations (day 0, 14 and 21) are marked by arrows. The results are shown as the reciprocal log2 of the geometric endpoint titer, and the SEM […] is indicated by means of vertical lines.
Six- to eight-week old female BALB/c (H-2d) mice were purchased from Harlan Winkelmann GmbH (Borchen, Germany) and treated in accordance with local and EU directives. Groups each of 5 mice were immunized on day 1, 14 and 21 either with 40 μg of pure β-galactosidase (Boehringer, Mannheim, Germany) with admixture of 0.5 μg of synthetic MALP-2 or 10 μg of cholera toxin B subunit (CTB; ICN Biomedicals Inc., Ohio) as standard adjuvant. For intranasal administration (i.n.), 10 μl were administered into each nostril, while for the i.p. injection β-galactosidase was resuspended with or without MALP-2 in 400, 100 or 100 μl of PBS. Serum samples were taken at various times (day 0, 13, 20 and 30) and stored at −20° C. until the β-galactosidase-specific antibodies were determined. Nunc-Immuno MaxiSorp assay plates with 96 wells (Nunc, Roskilde, Denmark) were coated with 100 μl of β-gal (Boehringer, Mannheim, Germany) with 5 μg/ml in 0.05 M […] (pH 8.2) per well. Serial two-fold dilutions of the sera or lavages in PBS with 1% BSA and 0.05% Tween-20 were added (100 μl/well) and the plates were incubated at 37° C. for 24 hours. After rinsing, biotinylated γ chain-specific goat anti-mouse IgG (Sigma Chemie, Deisenhofen, Germany) was added, and the plates were incubated at 37° C. for a further hour. After rinsing four times, 100 μl of peroxidase-conjugated streptavidin (Pharmingen) were added to the […], and the plates were incubated at 37° C. for 30 minutes. After rinsing four times, the reactions were developed by means of ABTS in 0.1 M citrate-phosphate buffer (pH 4.35) which contained 0.01% H2O2.

[5] = system: BALB/c (H-2d) mice; assay: β-Galactosidase-specific T-cell proliferation of spleen and regional lymph node cells of immunized mice (Example 7); details: day 31
Experimental: The cells were restimulated in vitro with various concentrations of soluble β-galactosidase for four days. The results are shown as average cpm subtracted from the background values for unstimulated cells from groups of three. The SEM is depicted by vertical lines.
Lymph nodes located below the lower jaw and the spleens were removed and put together for the analysis of the cellular immune responses. The cells were grown in RPMI 1640 supplemented by 10% fetal calf serum, 10 U/ml penicillin, 50 μg/ml streptomycin, 5×10^−5 M 2-mercaptoethanol and 1 mM L-glutamine (GIBCO BRL, Karlsruhe, Germany) and stored at 37° C. in a moist atmosphere with 5% CO2. The suspensions of lymph node and spleen cells were adjusted to 5×10^6 cells/ml in complete medium and put in a flat-bottomed 96-well microtiter plate (Nunc) with 100 μl/well, and the plates were incubated in the presence of various concentrations of soluble β-galactosidase for 4 days. Each concentration was tested in groups of three. During the last 18 hours of the incubation, 1 ρCi of [^3H]thymidine (Amersham International, Freiburg, Germany) was added to each well. The cells were then harvested on filter paper (Filtermat A; Wallac, Freiburg, Germany) using a cell harvester (Inotech, Wohlen, Switzerland), and the amount of incorporated [^3H]thymidine in the DNA of the proliferated cells was determined with the aid of a […] (Wallac 1450, Micro-Trilux). The results have been shown as the arithmetic mean of the uptake of [^3H]thymidine in cpm.

[6] = mice immunized i.p. with pure β-galactosidase

Row | Substance | IL-10 content in supernatants of spleen cells stimulated in vitro ([1]; mice immunized i.n., β-gal restimulation) [ng/mL] | β-galactosidase-specific IgA in lung rinsings [2] | β-Galactosidase-specific IgG1 in serum ([3]; i.n.) [µg/mL] | β-Galactosidase-specific IgG2a in serum ([3]; i.n.) [µg/mL] | β-Galactosidase-specific IgG2b in serum ([3]; i.n.) [µg/mL] | β-Galactosidase-specific IgG3 in serum ([3]; i.n.) [µg/mL] | β-Galactosidase-specific IgG1 in serum ([3]; i.p.) [µg/mL] | β-Galactosidase-specific IgG2a in serum ([3]; i.p.) [µg/mL] | β-Galactosidase-specific IgG2b in serum ([3]; i.p.) [µg/mL] | β-Galactosidase-specific IgG3 in serum ([3]; i.p.) [µg/mL] | Th1 cytokines IL-2 and IFN-γ secreted by restimulated cells [1, 6] | secretion of IL-10 and IL-4 by restimulated cells [1, 6] | β-galactosidase-specific antibody endpoint titer in serum [4] | proliferation of lymph node and spleen cells after in vitro restimulation with β-galactosidase ([5]; i.n. immunization) | proliferation of spleen cells after in vitro restimulation with β-galactosidase ([5]; i.p. immunization)
1 | CTB [reference compound] | 0.6 |  |  |  |  |  |  |  |  |  |  |  |  |  | 
2 | β-gal: model antigen β-galactosidase administered pure, without adjuvant |  | no production of β-galactosidase-specific IgA in detectable quantity | 22.6 ± 21.3 | 0.7 ± 0.5 | 0.3 ± 0.1 | 0.6 ± 0.0 | 191.5 ± 132.1 | 0.1 ± 0.0 | 0.5 ± 0.1 | 0.6 ± 0.0 | below the limit of detection | stimulated | about 1000 | no detectable cell proliferation | significant proliferation response
